# From patent US20210330611A1, “THERAPY FOR NEUROLOGICAL DISEASES/DISORDERS” (priority 2020, published 2021)
# Where a name gives a salt, the structure may show the parent alone. Read-outs that look alike come from different tables or passages of the source.
# Key:
# [1] = system: fibrin-induced microglia activation; experiment: Image-based assay of fibrin-induced microglia activation (HTS and dose response); format: cell-based, rat; conditions: for inhibition at 10 µM: Rattus norvegicus, Microglia, read-out: Fibrin % inhibition
# [2] = system: LPS-induced microglia activation; experiment: Image-based assay of LPS-induced microglia activation (HTS and dose response); format: cell-based, rat
# [3] = system: fibrin- and LPS-induced microglia activation; experiment: cells; format: cell-based, rat
# [4] = system: primary rat microglia;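 for Fibrin % cell toxicity: share of dead cells sized under 150 µm2 at 10 µM in fibrin-stimulated microglia HTS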
# [5] = system: primary rat microglia; remark: listed apart in the source;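 for Fibrin % cell toxicity: share of dead cells sized under 150 µm2 at 10 µM in fibrin-stimulated microglia HTS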
# [6] = primary microglia HTS, fibrin stimulation, activation = cell size >800 μm2
# [7] = Rattus norvegicus, Microglia, 48 h, primary microglia HTS, LPS stimulation, activation = cell size >800 μm2; read-out: LPS % inhibition
# [8] = quadrant by fibrin and LPS inhibition in HTS of 1907 compounds
# [9] = primary microglia HTS, fibrin stimulation, cell size >800 μm2 as marker of activation
# [10] = Rattus norvegicus, Microglia, 48 h; read-out: LPS % inhibition
# [11] = classification by fibrin and LPS inhibition in HTS
# [12] = Rattus norvegicus, Microglia, read-out: LPS % inhibition
# [13] = primary microglia HTS, fibrin stimulation, increased cell size (>800 μm^2) as marker of activation
# [14] = Rattus norvegicus, Microglia, 48 h, primary microglia HTS, LPS stimulation; increased cell size (>800 μm^2) as marker of activation; read-out: LPS % inhibition
structure (smiles),measurement,setting,value
"CC[C@]1(O)C[C@@H]2CN(CCc3c([nH]c4ccccc34)[C@@](C(=O)OC)(c3cc4c(cc3OC)N(C)[C@H]3[C@@](O)(C(N)=O)[C@H](O)[C@]5(CC)C=CCN6CC[C@]43[C@@H]65)C2)C1 [Vindesine, Vindesine Sulfate]",Fibrin % inhibition,[1]; 10 µM,106%
same,LPS % inhibition,[2]; 10 µM,102%
same,Quadrant (FIG. 5b),[3],Q2
same,Fibrin % cell toxicity,[4],30%
same,LPS % cell toxicity,[5],9%
COC1=C(OC)C(=O)C(CCCCCCCCCCO)=C(C)C1=O [Idebenone],inhibition at 10 µM,[1]; [6],-24%
same,inhibition at 10 µM,[2]; [7],2%
same,Quadrant (FIG. 5b),[3]; [8],Q4
same,Fibrin % cell toxicity,[4]; rat,1%
same,LPS % cell toxicity,[5]; rat,0%
O=c1[nH]c(=O)n([C@H]2C[C@H](O)[C@@H](CO)O2)cc1C(F)(F)F [Trifluridine],inhibition at 10 µM,"[1]; primary microglia HTS, 10 μM, fibrin-stimulated, cell size >800 μm^2 as marker of activation",10%
same,inhibition at 10 µM,"[2]; Rattus norvegicus, Microglia, primary microglia HTS, 10 μM, LPS-stimulated, cell size >800 μm^2 as marker of activation; read-out: LPS % inhibition",16%
same,Quadrant (FIG. 5b),"[3]; HTS of 1907 compounds, quadrant by fibrin and LPS inhibition",Q4
same,Fibrin % cell toxicity,[4]; rat,1%
same,LPS % cell toxicity,[5]; rat,1%
CC(C)CN(C[C@@H](O)[C@H](Cc1ccccc1)NC(=O)O[C@H]1CCOC1)S(=O)(=O)c1ccc(N)cc1 [Amprenavir],inhibition at 10 µM,"[1]; primary microglia HTS, fibrin stimulation, compounds at 10 μM",-10%
same,inhibition at 10 µM,"[2]; Rattus norvegicus, Microglia, primary microglia HTS, LPS stimulation, compounds at 10 μM; read-out: LPS % inhibition",6%
same,Quadrant (FIG. 5b),"[3]; quadrant by fibrin and LPS inhibition, HTS at 10 μM",Q4
same,Fibrin % cell toxicity,[4]; rat,1%
same,LPS % cell toxicity,[5]; rat,0%
CC(C)(S)[C@@H](N)C(=O)O [Penicillamine],inhibition at 10 µM,[1]; [9],-15%
same,inhibition at 10 µM,[2]; [10],16%
same,Quadrant (FIG. 5b),[3]; [11],Q4
same,Fibrin % cell toxicity,[4]; rat,0%
same,LPS % cell toxicity,[5]; rat,0%
CC(=O)NC[C@H]1CN(c2ccc(N3CCOCC3)c(F)c2)C(=O)O1 [Linezolid],inhibition at 10 µM,[1],-18%
same,inhibition at 10 µM,"[2]; Rattus norvegicus, Microglia, 48 h, read-out: LPS % inhibition",19%
same,Quadrant (FIG. 5b),[3],Q4
same,Fibrin % cell toxicity,[4]; rat,1%
same,LPS % cell toxicity,[5]; rat,0%
NCCNCCNCCN [Triethylenetetramine],inhibition at 10 µM,[1],3%
same,inhibition at 10 µM,[2]; [12],10%
same,Quadrant (FIG. 5b),[3],Q4
same,Fibrin % cell toxicity,[4]; rat,1%
same,LPS % cell toxicity,[5]; rat,0%
N#Cc1ccc(C(c2ccc(C#N)cc2)n2cncn2)cc1 [Letrozole],inhibition at 10 µM,[1]; [6],15%
same,inhibition at 10 µM,[2]; [7],16%
same,Quadrant (FIG. 5b),[3]; [8],Q4
same,Fibrin % cell toxicity,[4]; rat,1%
same,LPS % cell toxicity,[5]; rat,0%
CN1CCC(=C2c3ccccc3C=Cc3ccccc32)CC1 [Cyproheptadine],inhibition at 10 µM,[1],24%
same,inhibition at 10 µM,[2]; [12],43%
same,Quadrant (FIG. 5b),[3],Q4
same,Fibrin % cell toxicity,[4]; rat,1%
same,LPS % cell toxicity,[5]; rat,1%
CC(C[N+](C)(C)C)OC(N)=O (stereo not drawn) [Bethanechol],inhibition at 10 µM,"[1]; primary HTS, 10 μM, fibrin-stimulated primary microglia",14%
same,inhibition at 10 µM,"[2]; Rattus norvegicus, Microglia, primary HTS, 10 μM, LPS-stimulated primary microglia; read-out: LPS % inhibition",15%
same,Quadrant (FIG. 5b),"[3]; primary HTS, 10 μM",Q4
same,Fibrin % cell toxicity,[4]; rat,1%
same,LPS % cell toxicity,[5]; rat,0%
COc1cc(NS(C)(=O)=O)ccc1Nc1c2ccccc2nc2ccccc12 [Amsacrine],inhibition at 10 µM,[1]; [13],70%
same,inhibition at 10 µM,[2]; [14],120%
same,Quadrant (FIG. 5b),[3]; [8],Q2
same,Fibrin % cell toxicity,[4]; rat,3%
same,LPS % cell toxicity,[5]; rat,54%
NC(=O)[C@@H]1CCCN1C(=O)[C@H](Cc1cnc[nH]1)NC(=O)[C@@H]1CCC(=O)N1 [Protirelin],Fibrin % inhibition,[1]; [9],2%
same,LPS % inhibition,[2],15%
same,Quadrant (FIG. 5b),[3]; [11],Q4
same,Fibrin % cell toxicity,[4],1%
same,LPS % cell toxicity,[5],1%
Cc1ccccc1OCC(O)CO (stereo not drawn) [Mephenesin],inhibition at 10 µM,[1]; [13],14%
same,inhibition at 10 µM,[2]; [14],13%
same,Quadrant (FIG. 5b),[3]; [8],Q4
same,Fibrin % cell toxicity,[4]; rat,0%
same,LPS % cell toxicity,[5]; rat,0%
[O-][n+]1ccccc1[S-].[O-][n+]1ccccc1[S-].[Zn+2] [Pyrithione Zinc],Fibrin % inhibition,[1]; 10 µM,109%
same,LPS % inhibition,[2]; 10 µM,127%
same,Quadrant (FIG. 5b),[3],Q2
same,Fibrin % cell toxicity,[4],86%
same,LPS % cell toxicity,[5],87%
CC(C)c1nc(CN(C)C(=O)N[C@H](C(=O)N[C@@H](Cc2ccccc2)C[C@H](O)[C@H](Cc2ccccc2)NC(=O)OCc2cncs2)C(C)C)cs1 [Ritonavir],inhibition at 10 µM,[1]; [9],-8%
same,inhibition at 10 µM,[2]; [10],11%
same,Quadrant (FIG. 5b),[3]; [11],Q4
same,Fibrin % cell toxicity,[4]; rat,0%
same,LPS % cell toxicity,[5]; rat,0%
